# Like-named read-outs stand apart in the source and are kept apart here.
# How the values were obtained:
# Assay type in all cases: cell-based
# [1] = test system: E. faecalis strains; test: MIC against E. faecalis strains (Table M8); conditions: for MIC: Enterococcus faecalis, E. faecalis 29212
# [2] = test system: S. pneumoniae strains; test: MIC against S. pneumoniae strains (Tables M7, M8); conditions: for MIC: Streptococcus pneumoniae
# Text: CLSI standard procedures for broth dilution MIC determination were used. […] These genotypes can be constitutive or inducible.
# [3] = test system: A. baumannii strains; test: MIC against A. baumannii strains (Table M8); conditions: for MIC: Acinetobacter baumannii, BAA747, A. baumannii BAA747-1
# [4] = test system: K. pneumoniae strains; test: MIC against K. pneumoniae strains (Table M8); conditions: for MIC: Klebsiella pneumoniae, K. pneumoniae 10031
# [5] = test system: E. coli strains; test: MIC against E. coli strains (Table M7); conditions: for MIC: Escherichia coli, ATCC25922, E. coli ATCC 25922
# Text: (§1) We have collected MIC data for a total of 50 novel macrolides that this platform has produced against over 21 unique strains of B. subtilis, E. coli, S. aureus, S. pneumoniae, and H. influenzae, including several multidrug-resistant strains, with a special focus on macrolide resistant mechanisms (vide supra). Azithromycin was included as a control macrolide. CLSI standard procedures for broth dilution MIC determination were used. […] These genotypes can be constitutive or inducible. The finding that C4-epi (unnatural) isomers of the “azaketolide” macrolide class have enhanced activities relative to C4 natural isomers is very exciting.
# [6] = test system: S. aureus strains; test: MIC against S. aureus strains (Table M7); conditions: for MIC: Staphylococcus aureus
# Text: as §1
# [7] = test system: H. influenzae strains; test: MIC against H. influenzae strains (Table M8); conditions: for MIC: Haemophilus influenzae
# Text: as §1
# [8] = S. pneumoniae 1509, read-out: MIC S. pneumoniae (1509)
# [9] = S. pneumoniae 1533, read-out: MIC S. pneumoniae (1533)
# [10] = S. pneumoniae 1537, read-out: MIC S. pneumoniae (1537)
# [11] = ATCC29213, S. aureus ATCC 29213, read-out: MIC S. aureus (ATCC 29213)
# [12] = S. aureus 183, read-out: MIC S. aureus (183)
# [13] = S. aureus 506, read-out: MIC S. aureus (506)
# [14] = S. aureus 1708, read-out: MIC S. aureus (1708)
# [15] = USA300, S. aureus USA300, read-out: MIC S. aureus (USA300)
# [16] = H. influenzae 49766, read-out: MIC H. influenzae (49766)
# [17] = S. pneumoniae 160, read-out: MIC S. pneumonae (160)
# [18] = S. pneumoniae 49619, read-out: MIC S. pneumoniae (49619)
# [19] = H. influenzae 49247, read-out: MIC H. influenzae (49247)
Compound,"MIC [2, 8] [µg/mL]","MIC [2, 9] [µg/mL]","MIC [2, 10] [µg/mL]",MIC [3] [µg/mL],MIC [5] [µg/mL],"MIC [6, 11] [µg/mL]","MIC [6, 12] [µg/mL]","MIC [6, 13] [µg/mL]","MIC [6, 14] [µg/mL]","MIC [6, 15] [µg/mL]","MIC [7, 16] [µg/mL]",MIC [1] [µg/mL],"MIC [2, 17] [µg/mL]","MIC [2, 18] [µg/mL]",MIC [4] [µg/mL],"MIC [7, 19] [µg/mL]",also measured
C=CC[C@@]1(OC)C[C@@H](C)CN[C@H](C)[C@H]2N(CCCCn3cc(-c4ccccn4)nn3)C(=O)O[C@]2(C)[C@@H](CC)OC(=O)[C@H](C)C(=O)[C@H](C)[C@H]1O[C@@H]1OC(C)CC(N(C)C)C1O (some centres unmarked) [FSM-21423],> 32,> 32,> 32,> 32,32,16,> 32,> 32,32,16,16,–,–,–,–,–,MIC E. faecalis (29212) [1]: 4 µg/mL; MIC S. pneumonae (160) ([2]; S. pneumoniae 160): 0.25 µg/mL; MIC S. pneumoniae (49619) ([2]; S. pneumoniae 49619): 1 µg/mL; MIC K. pneumoniae (10031) [4]: 8 µg/mL; MIC H. influenzae (49247) ([7]; H. influenzae 49247): 2 µg/mL
CC[C@H]1OC(=O)[C@H](C)C(=O)[C@H](C)[C@@H](O[C@@H]2OC(C)CC(N(C)C)C2O)[C@](C)(OC)CC(C)(F)CN[C@H](C)[C@H]2N(CCCCn3cc(-c4cccc(N)c4)nn3)C(=O)O[C@]12C (some centres unmarked) [FSM-30686],4,> 32,> 32,> 32,32,8,> 32,> 32,4,8,8,0.5,0.5,0.25,8,2,–
CC[C@H]1OC(=O)[C@H](C)C(=O)[C@H](C)[C@@H](O[C@@H]2OC(C)CC(N(C)C)C2O)[C@](C)(OC)CC(C)N[C@H](C)[C@H]2N(CCCCn3cc(-c4cccc(N)c4)nn3)C(=O)O[C@]12C (some centres unmarked) [FSM-30690],–,–,–,–,–,–,–,–,–,–,–,–,–,–,–,–,MIC E. faecalis (29212) [1]: >32 µg/mL; MIC S. pneumonae (160) ([2]; S. pneumoniae 160): >32 µg/mL; MIC S. pneumoniae (1509) ([2]; S. pneumoniae 1509): >32 µg/mL; MIC S. pneumoniae (1533) ([2]; S. pneumoniae 1533): >32 µg/mL; MIC S. pneumoniae (1537) ([2]; S. pneumoniae 1537): >32 µg/mL; MIC S. pneumoniae (49619) ([2]; S. pneumoniae 49619): >32 µg/mL; MIC A. baumannii (BAA747-1) ([3]; A. baumannii BAA747-1): >32 µg/mL; MIC K. pneumoniae (10031) [4]: >32 µg/mL; MIC E. coli (ATCC 25922) ([5]; E. coli ATCC 25922): >32 µg/mL; MIC S. aureus (183) ([6]; S. aureus 183): >32 µg/mL; MIC S. aureus (506) ([6]; S. aureus 506): >32 µg/mL; MIC S. aureus (1708) ([6]; S. aureus 1708): >32 µg/mL; MIC S. aureus (ATCC 29213) ([6]; S. aureus ATCC 29213): >32 µg/mL; MIC S. aureus (USA300) ([6]; S. aureus USA300): >32 µg/mL; MIC H. influenzae (49247) ([7]; H. influenzae 49247): >32 µg/mL; MIC H. influenzae (49766) ([7]; H. influenzae 49766): >32 µg/mL
CC[C@H]1OC(=O)C(C)(F)C(=O)[C@H](C)[C@@H](O[C@@H]2OC(C)CC(N(C)C)C2O)[C@](C)(OC)CC(C)(F)CN[C@H](C)[C@H]2N(CCCCn3cc(-c4cccc(N)c4)nn3)C(=O)O[C@]12C (some centres unmarked) [FSM-30704],1,> 32,> 32,> 32,32,2,> 32,> 32,2,4,8,0.5,0.25,0.25,16,2,–
CC[C@H]1OC(=O)[C@H](CC#N)C(=O)[C@H](C)[C@@H](O[C@@H]2OC(C)CC(N(C)C)C2O)[C@](C)(OC)C[C@@H](C)CN[C@H](C)[C@H]2N(CCCCn3cc(-c4cccc(N)c4)nn3)C(=O)O[C@]12C (some centres unmarked) [FSM-56160],> 32,> 32,> 32,> 32,> 32,> 32,> 32,> 32,> 32,> 32,32,8,2,16,8,8,–
CC[C@H]1OC(=O)[C@H](CC(=O)OC(C)(C)C)C(=O)[C@H](C)[C@@H](O[C@@H]2OC(C)CC(N(C)C)C2O)[C@](C)(OC)C[C@@H](C)CN[C@H](C)[C@H]2N(CCCCn3cc(-c4cccc(N)c4)nn3)C(=O)O[C@]12C (some centres unmarked) [FSM-56178],> 32,> 32,> 32,> 32,> 32,> 32,> 32,> 32,> 32,> 32,> 32,> 32,8,> 32,> 32,> 32,–
CC[C@H]1OC(=O)[C@H](CC(=O)O)C(=O)[C@H](C)[C@@H](O[C@@H]2OC(C)CC(N(C)C)C2O)[C@](C)(OC)C[C@@H](C)CN[C@H](C)[C@H]2N(CCCCn3cc(-c4cccc(N)c4)nn3)C(=O)O[C@]12C (some centres unmarked) [FSM-56185],> 32,> 32,> 32,> 32,> 32,> 32,> 32,> 32,> 32,> 32,> 32,> 32,> 32,> 32,> 32,> 32,–
CC[C@H]1OC(=O)[C@H](Cc2cn[nH]c2)C(=O)[C@H](C)[C@@H](O[C@@H]2OC(C)CC(N(C)C)C2O)[C@](C)(OC)C[C@@H](C)CN[C@H](C)[C@H]2N(CCCCn3cc(-c4cccc(N)c4)nn3)C(=O)O[C@]12C (some centres unmarked) [FSM-56192],> 32,> 32,> 32,> 32,> 32,> 32,> 32,> 32,> 32,> 32,32,32,8,2,16,8,–

# — patent US9982005B2, “Macrolides and methods of their preparation and use” (President and Fellows of Harvard College, priority 2013, dated 2018)
